{
  "source": "patent US10683272B2",
  "about": "(THE JOHNS HOPKINS UNIVERSITY, priority 2014, dated 2020)",
  "experiment": "radiation dosimetry (OLINDA/EXM) from baboon PET data",
  "assay_type": "Reference Adult Male based on baboon PET imaging data",
  "method": "For each time-point, the activity concentration (in Bq/cm^3) was measured in each of the 14 delineated organs and multiplied by the organ volume to obtain the total activity per time point per organ. The measured values were then decay-corrected and divided by the baboon organ mass, determined by the CT density and volume from the drawn contours, and the injected radioactivity to obtain the fraction of initial radioactivity per gram (FIA/g) for each time point and each organ. The baboon FIA/g values were then converted to human FIA (per organ) using the following equation (Schwartz et al., 2011; Woodard et al., 1975): […]\nThat approach assumes that the concentration of activity in a particular tissue relative to the overall concentration in the whole body is preserved across species (i.e., organ concentration/total body concentration is the same for baboon and man). The resulting human FIA values were plotted as a function of time (nine data points) for each organ and fit to a bi-exponential expression: FIA(t)=A1.e^−(λ1^bio^.t)+A2.e^−(Δ2^bio^.t) (2)\nwhere A1, A2, λ1bio, and λ2bio are fit parameters. The sum of A1 and A2 give the back-extrapolated, time-zero fraction of administered radioactivity in each organ, and λ1bio and λ2bio are the biological clearance constants. The equation for the time-integrated activity coefficient [TIAC, previously known as residence time (Bolch et al., 2009) for each source organ was obtained, as its name implies, by integrating equation (2) and introducing a physical decay term, λφ, which depends on the isotope used:\nTIACs were calculated for ^90Y, ^177Lu and ^86Y, with their corresponding physical decay constants: ^90Y λφ=0.01083 h^−1 (T1/2=64.0 h); ^177Lu λφ=0.00429 h^−1 (T1/2=161.52 h) and ^86Y λφ=0.04702 h^−1 (T1/2=14.74 h), respectively voiding. Radiation absorbed doses were obtained by converting time-integrated activity to absorbed doses according to the MIRD absorbed fraction methodology (Bolch et al., 2009) through the use of the OLINDA/EXM software (Stabin et al., 2005). The TIAC for the urinary bladder was obtained using the MIRD bladder model implemented in OLINDA/EXM. Input to that model requires the whole-body TIAC, which was obtained from the equation FIA(t)=A. e^(−λ^bio^t) fitted to whole-body retention kinetics. The voiding interval was set to 2 h. The TIACs were then input into OLINDA/EXM (Stabin et al., 2005), and the resulting absorbed dose per unit of radioactivity obtained for the 14 organs. The specific kidney model in OLINDA/EXM was used to obtain the renal cortex dose values. The absorbed dose from organs external to the kidney was added to the renal cortex dose calculated from the internal kidney model. The specific prostate model was used for prostate self-dose, and external dose to the bladder was added as a surrogate for the whole body to prostate dose. The self-dose component of the absorbed dose per unit activity for the salivary glands was obtained using 3D-RD Monte Carlo (EGSnrc) and a human CT with delineated salivary glands. The cross-dose component was taken by assuming the same cross-dose for a like-sized organ (pancreas).\nMeasured activity concentration (in Bq/cm^3) values per time point per organ were decay-corrected and divided by the baboon organ mass, determined by the CT density and volume from the drawn contours, and the injected radioactivity to obtain the fraction of initial radioactivity per gram (FIA/g) for each time point and each organ. The baboon FIA/g values were then converted to human FIA (per organ) using the related equation (Olszewski et al., 2004; Schwartz et al., 2011). The resulting human FIA values were then plotted as a function of time and fit to a bi-exponential expression and the value for the time-integrated activity coefficient (TIAC, previously known as residence time (Woodard et al., 1975)) for each source organ was calculated. […]",
  "data": [
    {"smiles": "O=C([O-])CN1CCN(CC(=O)[O-])CCN(CC(=O)[O-])C(Cc2ccc(NC(=S)NCCCCNC(=O)CCCCCCC(=O)NCCCC[C@H](NC(=O)N[C@@H](CCC(=O)O)C(=O)O)C(=O)O)cc2)CN(CC(=O)[O-])CC1.[86Y+3]", "note": "(some centres unmarked) [^86Y-6]", "values": [
      {"measurement": "Organ absorbed dose, Adrenals", "setting": "^86Y", "result": "8.62E−02", "unit": "mGy/MBq"},
      {"measurement": "Organ absorbed dose, Brain", "setting": "^86Y", "result": "2.30E−02", "unit": "mGy/MBq"},
      {"measurement": "Organ absorbed dose, Breasts", "setting": "^86Y", "result": "4.52E−02", "unit": "mGy/MBq"},
      {"measurement": "Organ absorbed dose, Gallbladder wall", "setting": "^86Y", "result": "7.88E−02", "unit": "mGy/MBq"},
      {"measurement": "Organ absorbed dose, Heart wall", "setting": "^86Y", "result": "6.70E−02", "unit": "mGy/MBq"},
      {"measurement": "Organ absorbed dose, Kidneys", "setting": "^86Y", "result": "4.03E−01", "unit": "mGy/MBq"},
      {"measurement": "Organ absorbed dose, LLI wall", "setting": "^86Y", "result": "9.61E−02", "unit": "mGy/MBq"},
      {"measurement": "Organ absorbed dose, Liver", "setting": "^86Y", "result": "7.19E−02", "unit": "mGy/MBq"},
      {"measurement": "Organ absorbed dose, Lungs", "setting": "^86Y", "result": "5.98E−02", "unit": "mGy/MBq"},
      {"measurement": "Organ absorbed dose, Muscle", "setting": "^86Y", "result": "5.47E−02", "unit": "mGy/MBq"},
      {"measurement": "Organ absorbed dose, Osteogenic cells", "setting": "^86Y", "result": "7.19E−02", "unit": "mGy/MBq"},
      {"measurement": "Organ absorbed dose, Ovaries", "setting": "^86Y", "result": "9.48E−02", "unit": "mGy/MBq"},
      {"measurement": "Organ absorbed dose, Pancreas", "setting": "^86Y", "result": "8.09E−02", "unit": "mGy/MBq"},
      {"measurement": "Organ absorbed dose, Prostate", "setting": "^86Y", "result": "7.64E−02", "unit": "mGy/MBq"},
      {"measurement": "Organ absorbed dose, Red marrow", "setting": "^86Y", "result": "6.29E−02", "unit": "mGy/MBq"},
      {"measurement": "Organ absorbed dose, Renal cortex", "setting": "^86Y", "result": "4.24E−01", "unit": "mGy/MBq"},
      {"measurement": "Organ absorbed dose, Salivary glands", "setting": "^86Y", "result": "1.78E−01", "unit": "mGy/MBq"},
      {"measurement": "Organ absorbed dose, Skin", "setting": "^86Y", "result": "3.97E−02", "unit": "mGy/MBq"},
      {"measurement": "Organ absorbed dose, Small intestine", "setting": "^86Y", "result": "8.72E−02", "unit": "mGy/MBq"},
      {"measurement": "Organ absorbed dose, Spleen", "setting": "^86Y", "result": "7.23E−02", "unit": "mGy/MBq"},
      {"measurement": "Organ absorbed dose, Stomach wall", "setting": "^86Y", "result": "6.69E−02", "unit": "mGy/MBq"},
      {"measurement": "Organ absorbed dose, Testes", "setting": "^86Y", "result": "7.23E−02", "unit": "mGy/MBq"},
      {"measurement": "Organ absorbed dose, Thymus", "setting": "^86Y", "result": "5.38E−02", "unit": "mGy/MBq"},
      {"measurement": "Organ absorbed dose, Thyroid", "setting": "^86Y", "result": "5.07E−02", "unit": "mGy/MBq"},
      {"measurement": "Organ absorbed dose, ULI wall", "setting": "^86Y", "result": "8.56E−02", "unit": "mGy/MBq"},
      {"measurement": "Organ absorbed dose, Urinary bladder wall", "setting": "^86Y", "result": "6.17E−01", "unit": "mGy/MBq"},
      {"measurement": "Organ absorbed dose, Uterus", "setting": "^86Y", "result": "1.34E−01", "unit": "mGy/MBq"},
      {"measurement": "Time-integrated activity coefficient (residence time), Brain", "setting": "^86Y", "result": "1.41E−02", "unit": "MBq-h/MBq"},
      {"measurement": "Time-integrated activity coefficient (residence time), Heart contents", "setting": "^86Y", "result": "2.55E−02", "unit": "MBq-h/MBq"},
      {"measurement": "Time-integrated activity coefficient (residence time), Kidneys", "setting": "^86Y", "result": "4.08E−01", "unit": "MBq-h/MBq"},
      {"measurement": "Time-integrated activity coefficient (residence time), Liver", "setting": "^86Y", "result": "1.37E−01", "unit": "MBq-h/MBq"},
      {"measurement": "Time-integrated activity coefficient (residence time), Lungs", "setting": "^86Y", "result": "9.70E−02", "unit": "MBq-h/MBq"},
      {"measurement": "Time-integrated activity coefficient (residence time), Muscle", "setting": "^86Y", "result": "4.76E−01", "unit": "MBq-h/MBq"},
      {"measurement": "Time-integrated activity coefficient (residence time), Pancreas", "setting": "^86Y", "result": "6.37E−03", "unit": "MBq-h/MBq"},
      {"measurement": "Time-integrated activity coefficient (residence time), Prostate", "setting": "^86Y", "result": "1.15E−03", "unit": "MBq-h/MBq"},
      {"measurement": "Time-integrated activity coefficient (residence time), Remainder", "setting": "^86Y", "result": 3.64, "unit": "MBq-h/MBq"},
      {"measurement": "Time-integrated activity coefficient (residence time), Renal cortex", "setting": "^86Y", "result": "3.23E−01", "unit": "MBq-h/MBq"},
      {"measurement": "Time-integrated activity coefficient (residence time), Salivary Glands", "setting": "^86Y", "result": "4.45E−02", "unit": "MBq-h/MBq"},
      {"measurement": "Time-integrated activity coefficient (residence time), Small intestine", "setting": "^86Y", "result": "9.31E−03", "unit": "MBq-h/MBq"},
      {"measurement": "Time-integrated activity coefficient (residence time), Spleen", "setting": "^86Y", "result": "7.41E−03", "unit": "MBq-h/MBq"},
      {"measurement": "Time-integrated activity coefficient (residence time), Stomach", "setting": "^86Y", "result": "6.44E−03", "unit": "MBq-h/MBq"},
      {"measurement": "Time-integrated activity coefficient (residence time), ULI", "setting": "^86Y", "result": "1.99E−02", "unit": "MBq-h/MBq"},
      {"measurement": "Time-integrated activity coefficient (residence time), Ur. bladder contents", "setting": "^86Y", "result": "7.41E−01", "unit": "MBq-h/MBq"},
      {"measurement": "effective dose", "setting": "^86Y, calculated in OLINDA/EXM", "result": 0.099, "unit": "mSv/MBq"},
      {"measurement": "Organ absorbed dose, Adrenals", "setting": "^90Y", "result": "3.46E−02", "unit": "mGy/MBq"},
      {"measurement": "Organ absorbed dose, Brain", "setting": "^90Y", "result": "6.79E−03", "unit": "mGy/MBq"},
      {"measurement": "Organ absorbed dose, Breasts", "setting": "^90Y", "result": "3.46E−02", "unit": "mGy/MBq"},
      {"measurement": "Organ absorbed dose, Gallbladder wall", "setting": "^90Y", "result": "3.46E−02", "unit": "mGy/MBq"},
      {"measurement": "Organ absorbed dose, Heart wall", "setting": "^90Y", "result": "5.33E−02", "unit": "mGy/MBq"},
      {"measurement": "Organ absorbed dose, Kidneys", "setting": "^90Y", "result": 1.13, "unit": "mGy/MBq"},
      {"measurement": "Organ absorbed dose, LLI wall", "setting": "^90Y", "result": "3.46E−02", "unit": "mGy/MBq"},
      {"measurement": "Organ absorbed dose, Liver", "setting": "^90Y", "result": "4.99E−02", "unit": "mGy/MBq"},
      {"measurement": "Organ absorbed dose, Lungs", "setting": "^90Y", "result": "6.57E−02", "unit": "mGy/MBq"},
      {"measurement": "Organ absorbed dose, Muscle", "setting": "^90Y", "result": "1.32E−02", "unit": "mGy/MBq"},
      {"measurement": "Organ absorbed dose, Osteogenic cells", "setting": "^90Y", "result": "5.26E−02", "unit": "mGy/MBq"},
      {"measurement": "Organ absorbed dose, Ovaries", "setting": "^90Y", "result": "3.46E−02", "unit": "mGy/MBq"},
      {"measurement": "Organ absorbed dose, Pancreas", "setting": "^90Y", "result": "4.64E−02", "unit": "mGy/MBq"},
      {"measurement": "Organ absorbed dose, Prostate", "setting": "^90Y", "result": "4.78E−02", "unit": "mGy/MBq"},
      {"measurement": "Organ absorbed dose, Red marrow", "setting": "^90Y", "result": "2.41E−02", "unit": "mGy/MBq"},
      {"measurement": "Organ absorbed dose, Renal cortex", "setting": "^90Y", "result": 1.19, "unit": "mGy/MBq"},
      {"measurement": "Organ absorbed dose, Salivary glands", "setting": "^90Y", "result": "2.79E−01", "unit": "mGy/MBq"},
      {"measurement": "Organ absorbed dose, Skin", "setting": "^90Y", "result": "3.46E−02", "unit": "mGy/MBq"},
      {"measurement": "Organ absorbed dose, Small intestine", "setting": "^90Y", "result": "4.29E−02", "unit": "mGy/MBq"},
      {"measurement": "Organ absorbed dose, Spleen", "setting": "^90Y", "result": "1.64E−02", "unit": "mGy/MBq"},
      {"measurement": "Organ absorbed dose, Stomach wall", "setting": "^90Y", "result": "3.46E−02", "unit": "mGy/MBq"}
    ]}
  ]
}
